Source: patent US10577365B2, “Derivatives of quinoline as inhibitors of DYRK1A and/or DYRK1B kinases” (Felicitex Therapeutics, Inc., priority 2016, dated 2020)
Where a name gives a salt, the structure may show the parent alone.

Tests used:
DYRK1A = biological target: T1, DYRK1A (Homo sapiens, UniProt Q13627); experiment: DYRK1A in vitro kinase assay (ADP-Glo); assay type: biochemical; conditions: ATP 70 μM (Km), substrate 3 μM, enzyme 2 nM or 0.7 nM, 30 min, rt
T1 construct: purchased Carna Bioscence (Carna Biosciences) 04-130
Procedure: The compounds of the present invention were tested for their inhibitory activity against DYRK1A and DYRK1B kinases once or several times. When tested more than once, the data are reported herein as average value, wherein the average value, also referred to as the mean value, represents the sum of obtained values divided by the number of times tested.
DYRK-inhibitory activity of the compounds of the present invention was tested using the ADP-Glo™ assay as described in the following paragraphs. The procedure for determining the IC50 values with the ADP-Glo™ assay in in vitro kinase assays consists of two parts:
1. Kinase reaction performed under optimized conditions;
2. Detection of ADP as a product of the reaction using ADP-Glo™ system (Promega).
The tested compounds indicated in Table 5 below were dissolved in DMSO, then transferred to the V-bottom PP plate to perform nine serial dilutions (in order to obtain dose-response curves) in 25% DMSO, as indicated in Table 5 below.
The optimized conditions for performing DYRK1A in vitro kinase assay were as follows:
For compound testing, the following protocol was used: two mixes were prepared on ice, Mix 1 containing substrate, ATP and reaction buffer and Mix 2 containing reaction buffer and the kinase. 15 μL per well of Mix 1 was transferred to wells of a 96-well plate. Next, 2.5 μL of the pre-diluted compound to be tested was added to Mix 1, followed by the addition of 12.5 μL of Mix 2. Total reaction volume was 30 μL per well. The experiment was performed in duplicate for each data point being examined. Dose response curve for the positive control was carried out on each assay plate by adding the reference inhibitory compound staurosporine. For each test, three controls were also included: (i) 30 μL of the reaction mixture containing: reaction buffer, ATP, kinase, DMSO without substrate (quasi-positive control); (ii) 30 μL of the reaction mixture containing reaction buffer, substrate, ATP, DMSO without kinase (background control); (iii) 30 μL of the reaction mixture containing reaction buffer, substrate, kinase, ATP, DMSO (vehicle control). Final concentration of DMSO in the reaction was 2%. To detect the ADP amount produced during the kinase reaction, the commercially available kit ADP-Glo™ Kinase Assay (Promega, cat. No # V9103) was used. The protocol used for the detection was based on the Technical Bulletin of the ADP-Glo™ Kinase Assay (Promega) and was adapted to 96-well plate containing 30 μL reaction mixture as explained below.
30 μL of ADP-Glo™ Reagent was added to each well of a 96 well plate containing 30 μL of reaction mixture to terminate the kinase reaction and deplete the remaining ATP. The plate was incubated for 60 minutes on a shaker at rt. 60 μL of Kinase Detection Solution was then added to each well of 96-well plate containing 60 μL of the solution to convert ADP to ATP and to allow the newly synthesized ATP to be measured using a luciferase/luciferin reaction (ratio of kinase reaction volume to ADP Glo™ Reagent volume to Kinase Detection Solution volume was maintained at 1:1:2). The plate was incubated for 40 minutes on a shaker at rt, protected from light. Luminescence was measured in the plate reader, wherein the luminescent signal is proportional to the ADP concentration produced and thus correlates with kinase activity.
After data normalization to controls (complete reaction mix and no-substrate control) and transforming X values (test compound concentrations) using: X=log(X), IC50 values were determined, using the GraphPad Prism 6.0 [log(agonist) vs. normalized response—Variable slope].

DYRK1B = biological target: T2, DYRK1B (Homo sapiens, UniProt Q9Y463); experiment: DYRK1B in vitro kinase assay (ADP-Glo); assay type: biochemical; conditions: ADP-Glo assay, ATP 15 μM (Km), substrate 7 μM, enzyme 1 nM or 0.3 nM, 1 h, rt; read-out: DYRK1B IC50
T2 construct: purchased Carna Bioscence (Carna Biosciences) 04-131
Procedure: The compounds of the present invention were tested for their inhibitory activity against DYRK1A and DYRK1B kinases once or several times. When tested more than once, the data are reported herein as average value, wherein the average value, also referred to as the mean value, represents the sum of obtained values divided by the number of times tested. DYRK-inhibitory activity of the compounds of the present invention was tested using the ADP-Glo™ assay as described in the following paragraphs. The procedure for determining the IC50 values with the ADP-Glo™ assay in in vitro kinase assays consists of two parts: […] Kinase reaction performed under optimized conditions; 2. Detection of ADP as a product of the reaction using ADP-Glo™ system (Promega). The tested compounds indicated in Table 5 below were dissolved in DMSO, then transferred to the V-bottom PP plate to perform nine serial dilutions (in order to obtain dose-response curves) in 25% DMSO, as indicated in Table 5 below. The optimized conditions for performing DYRK1B in vitro kinase assay were as follows: [table] For compound testing, the following protocol was used: two mixes were prepared on ice, Mix 1 containing substrate, ATP and reaction buffer and Mix 2 containing reaction buffer and the kinase. 15 μL per well of Mix 1 was transferred to wells of a 96-well plate. […] Total reaction volume was 30 μL per well. The experiment was performed in duplicate for each data point being examined. Dose response curve for the positive control was carried out on each assay plate by adding the reference inhibitory compound staurosporine. For each test, three controls were also included: (i) 30 μL of the reaction mixture containing: reaction buffer, ATP, kinase, DMSO without substrate (quasi-positive control); (ii) 30 μL of the reaction mixture containing reaction buffer, substrate, ATP, DMSO without kinase (background control); (iii) 30 μL of the reaction mixture containing reaction buffer, substrate, kinase, ATP, DMSO (vehicle control). Final concentration of DMSO in the reaction was 2%. To detect the ADP amount produced during the kinase reaction, the commercially available kit ADP-Glo™ Kinase Assay (Promega, cat. No # V9103) was used. The protocol used for the detection was based on the Technical Bulletin of the ADP-Glo™ Kinase Assay (Promega) and was adapted to 96-well plate containing 30 μL reaction mixture as explained below. 30 μL of ADP-Glo™ Reagent was added to each well of a 96 well plate containing 30 μL of reaction mixture to terminate the kinase reaction and deplete the remaining ATP. The plate was incubated for 60 minutes on a shaker at rt. 60 μL of Kinase Detection Solution was then added to each well of 96-well plate containing 60 μL of the solution to convert ADP to ATP and to allow the newly synthesized ATP to be measured using a luciferase/luciferin reaction (ratio of kinase reaction volume to ADP Glo™ Reagent volume to Kinase Detection Solution volume was maintained at 1:1:2). The plate was incubated for 40 minutes on a shaker at rt, protected from light. Luminescence was measured in the plate reader, wherein the luminescent signal is proportional to the ADP concentration produced and thus correlates with kinase activity. After data normalization to controls (complete reaction mix and no-substrate control) and transforming X values (test compound concentrations) using: X=log(X), IC50 values were determined, using the GraphPad Prism 6.0 [log(agonist) vs. normalized response—Variable slope].

T2 sequence (Q9Y463 whole entry): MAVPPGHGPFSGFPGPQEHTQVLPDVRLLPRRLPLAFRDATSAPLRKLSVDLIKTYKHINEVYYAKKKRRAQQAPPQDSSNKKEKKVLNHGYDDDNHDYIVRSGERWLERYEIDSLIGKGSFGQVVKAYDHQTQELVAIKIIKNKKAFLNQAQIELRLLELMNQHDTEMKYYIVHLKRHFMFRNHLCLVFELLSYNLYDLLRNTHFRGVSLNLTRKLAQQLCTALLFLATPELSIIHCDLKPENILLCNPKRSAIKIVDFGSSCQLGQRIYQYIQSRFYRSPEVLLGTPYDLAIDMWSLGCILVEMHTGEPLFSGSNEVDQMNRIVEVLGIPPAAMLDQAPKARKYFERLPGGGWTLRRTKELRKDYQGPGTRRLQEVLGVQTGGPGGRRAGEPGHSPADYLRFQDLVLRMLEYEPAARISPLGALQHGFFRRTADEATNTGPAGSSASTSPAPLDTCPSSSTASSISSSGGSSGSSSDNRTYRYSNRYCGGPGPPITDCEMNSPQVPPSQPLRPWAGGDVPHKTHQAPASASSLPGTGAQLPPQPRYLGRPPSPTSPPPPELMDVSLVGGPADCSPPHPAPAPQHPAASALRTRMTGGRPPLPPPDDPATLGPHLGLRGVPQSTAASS

Work on `CC(=O)Nc1cnc2ccc(-c3c[nH]c4ncc(C(=O)NCc5cccnc5)cc34)cc2c1` [Example 62, 3-(3-Acetamidoquinolin-6-yl)-N-(pyridin-3-ylmethyl)-1H-pyrrolo[2,3-b]pyridine-5-carboxamide] yielded an IC50 (DYRK1A) of less than 10 nM and an IC50 (DYRK1B) of less than 10 nM.

`CNC(=O)c1cnc2[nH]cc(-c3cc(F)c4nccc(N5CCC[C@@H](N)C5)c4c3)c2c1` [Example 41, 3-{4-[(3R)-3-Aminopiperidin-1-yl]-8-fluoroquinolin-6-yl}-N-methyl-1H-pyrrolo[2,3-b]pyridine-5-carboxamide hydrochloride] showed an IC50 (DYRK1A) of less than 10 nM and an IC50 (DYRK1B) of less than 10 nM.

In the case of `c1cnc2[nH]cc(-c3ccc4nccc(-c5ccncc5)c4c3)c2c1` [Example 7, 4-(Pyridin-4-yl)-6-{1H-pyrrolo[2,3-b]pyridin-3-yl}quinoline], the IC50 (DYRK1A) is reported as less than 10 nM and the IC50 (DYRK1B) is reported as less than 10 nM.

Work on `CNC(=O)c1cnc2[nH]cc(-c3ccc4nccc(-c5cccnc5)c4c3)c2c1` [Example 22, N-Methyl-3-[4-(pyridin-3-yl)quinolin-6-yl]-1H-pyrrolo[2,3-b]pyridine-5-carboxamide] yielded an IC50 (DYRK1A) of less than 10 nM and an IC50 (DYRK1B) of less than 10 nM.

Compound `Fc1cc(-c2c[nH]c3ncccc23)cc2cccnc12` [Example 13, 8-Fluoro-6-{1H-pyrrolo[2,3-b]pyridin-3-yl}quinoline] has an IC50 (DYRK1A) of less than 10 nM and an IC50 (DYRK1B) of less than 10 nM.

`NCCCNC(=O)c1cnc2[nH]cc(-c3cc(Cl)c4ncccc4c3)c2c1` [Example 34, N-(3-Aminopropyl)-3-(8-chloroquinolin-6-yl)-1H-pyrrolo[2,3-b]pyridine-5-carboxamide hydrochloride] was tested, and the IC50 (DYRK1A) was less than 10 nM and the IC50 (DYRK1B) was less than 10 nM.

Work on `C=CCN(C)C(=O)c1cnc2[nH]cc(-c3cc(Cl)c4ncccc4c3)c2c1` [Example 28, 3-(8-Chloroquinolin-6-yl)-N-methyl-N-(prop-2-en-1-yl)-1H-pyrrolo[2,3-b]pyridine-5-carboxamide] yielded an IC50 (DYRK1A) of 10 to 100 nM and an IC50 (DYRK1B) of less than 10 nM.

`N[C@H]1CCCN(c2ccnc3ccc(-c4c[nH]c5ncccc45)cc23)C1` [Example 3, (3S)-1-(6-{1H-Pyrrolo[2,3-b]pyridin-3-yl}quinolin-4-yl)piperidin-3-amine] showed an IC50 (DYRK1A) of less than 10 nM and an IC50 (DYRK1B) of less than 10 nM.

`NCCCNC(=O)c1cnc2[nH]cc(-c3cc(F)c4nccc(-c5cccnc5)c4c3)c2c1` [Example 37, N-(3-Aminopropyl)-3-[8-fluoro-4-(pyridin-3-yl)quinolin-6-yl]-1H-pyrrolo[2,3-b]pyridine-5-carboxamide hydrochloride] showed an IC50 (DYRK1A) of less than 10 nM and an IC50 (DYRK1B) of less than 10 nM.

`N[C@@H]1CCCN(c2ccnc3c(F)cc(-c4c[nH]c5ncc(CNCc6ccccc6)cc45)cc23)C1` [Example 51, (3R)-1-(6-{5-[(Benzylamino)methyl]-1H-pyrrolo[2,3-b]pyridin-3-yl}-8-fluoroquinolin-4-yl)piperidin-3-amine] was tested, and the IC50 (DYRK1A) was less than 10 nM and the IC50 (DYRK1B) was less than 10 nM.

In the case of `O=C(NCc1cccnc1)c1cnc2[nH]cc(-c3cc(F)c4nccc(-c5cccnc5)c4c3)c2c1` [Example 47, 3-[8-Fluoro-4-(pyridin-3-yl)quinolin-6-yl]-N-(pyridin-3-ylmethyl)-1H-pyrrolo[2,3-b]pyridine-5-carboxamide], the IC50 (DYRK1A) is reported as less than 10 nM and the IC50 (DYRK1B) is reported as less than 10 nM.

With `CNC(=O)c1cnc2[nH]cc(-c3ccc4nccc(N5CCOCC5)c4c3)c2c1` [Example 23, N-Methyl-3-[4-(morpholin-4-yl)quinolin-6-yl]-1H-pyrrolo[2,3-b]pyridine-5-carboxamide] the IC50 (DYRK1A) was less than 10 nM and the IC50 (DYRK1B) was less than 10 nM.

For `N[C@H]1CC[C@H](Nc2c(NCC3CCOCC3)cnc3ccc(-c4c[nH]c5ncc(C(=O)NCc6cccnc6)cc45)cc23)CC1` [Example 60, 3-{4-[(4-Aminocyclohexyl)amino]-3-[(oxan-4-ylmethyl)amino]quinolin-6-yl}-N-(pyridin-3-ylmethyl)-1H-pyrrolo[2,3-b]pyridine-5-carboxamide hydrochloride], the IC50 (DYRK1A) was 10 to 100 nM and the IC50 (DYRK1B) was less than 10 nM.

For `CNC(=O)c1cnc2[nH]cc(-c3cc(F)c4nccc(-c5cccnc5)c4c3)c2c1` [Example 39, 3-[8-Fluoro-4-(pyridin-3-yl)quinolin-6-yl]-N-methyl-1H-pyrrolo[2,3-b]pyridine-5-carboxamide], the IC50 (DYRK1A) was less than 10 nM and the IC50 (DYRK1B) was less than 10 nM.

In the case of `C=CCN(C)C(=O)c1cnc2[nH]cc(-c3cc(F)c4nccc(-c5cccnc5)c4c3)c2c1` [Example 38, 3-[8-Fluoro-4-(pyridin-3-yl)quinolin-6-yl]-N-methyl-N-(prop-2-en-1-yl)-1H-pyrrolo[2,3-b]pyridine-5-carboxamide], the IC50 (DYRK1A) is reported as 10 to 100 nM and the IC50 (DYRK1B) is reported as less than 10 nM.

In the case of `CNC(=O)c1cnc2[nH]cc(-c3ccc4ncc([N+](=O)[O-])c(N5CCC[C@H](N)C5)c4c3)c2c1` [Example 53, 3-{4-[(3S)-3-Aminopiperidin-1-yl]-3-nitroquinolin-6-yl}-N-methyl-1H-pyrrolo[2,3-b]pyridine-5-carboxamide hydrochloride], the IC50 (DYRK1A) is reported as 10 to 100 nM and the IC50 (DYRK1B) is reported as less than 10 nM.

`Fc1cc(-c2c[nH]c3ncccc23)cc2c(-c3cccnc3)ccnc12` [Example 19, 8-Fluoro-4-(pyridin-3-yl)-6-{1H-pyrrolo[2,3-b]pyridin-3-yl}quinoline] was tested, and the IC50 (DYRK1A) was less than 10 nM and the IC50 (DYRK1B) was less than 10 nM.

`CN1CCC(N(C)c2c([N+](=O)[O-])cnc3ccc(-c4c[nH]c5ncccc45)cc23)CC1` [Example 65, N-Methyl-N-(1-methylpiperidin-4-yl)-3-nitro-6-{1H-pyrrolo[2,3-b]pyridin-3-yl}quinolin-4-amine] showed an IC50 (DYRK1A) of 10 to 100 nM and an IC50 (DYRK1B) of 10 to 100 nM.
